Test results reported in paper PMC7698860, “Discovery and Design of Novel Small Molecule GSK-3 Inhibitors Targeting the Substrate Binding Site” (International Journal of Molecular Sciences, 2020).

What was measured:
[1] = molecular target: T1, GSK-3β (Oryctolagus cuniculus, UniProt A0A5F9DUX8); experiment: In vitro GSK-3β kinase assay (ELISA-based, IRS-1 peptide substrate); assay type: biochemical, rabbit; conditions: for IC50: GSK-3β inhibition, 10 μM ATP; for IC50 / GSK-3β inhibition (in words): in vitro kinase assay; for GSK-3β inhibition (in words): screening hits; for Effect of Triton ×100 on inhibition of GSK-3β: 20 μM, 0.05% Triton ×100 (colloidal aggregation control)
Method: (§1) An ELISA-based assay was developed in our laboratory to measure GSK-3 activity. In brief, biotin-labelled IRS-1 peptide substrate was bound to streptavidin-coated 96-well microplates. A GSK-3 assay solution (0.1 μg GSK-3β, 20 mM Tris (pH 7.3), 10 mM MgCl2, and 10 μM ATP) was added to each well, together with the candidate compound at indicated concentrations, and the plates were incubated for 15 min at 30 °C. After having been washed (PBS 0.05% tween), the plates were incubated with a specific anti-phospho IRS-1 antibody (Ser^332) (1:2000), followed by HRP-secondary antibody (1:8000). The signal was developed with TMB solution (abcam, Cambridge UK, Cat# ab210902), stopped with H2SO4, and monitored in a plate reader ([…]). Assays were conducted in duplicates in three independent experiments. In the ATP competitive, or, substrate competitive assays, the assays (60 μL) were performed in Eppendorf tubes (to use “unbound” substrate), and 10–20 μL were spotted on the streptavidin-coated plates. Km values were calculated from the non-linear curve fit, and Ki values were calculated by Kapp = Km (1 + [I]/Ki). Bacterially expressed His-tagged rabbit GSK-3β was purified as described, and purified human GSK-3α was purchased from abcam (Cat# ab42597). The selectivity of compound 4-4 against a collection of protein kinases was assayed at the International Center for Kinase Profiling at the MRC unit, University of Dundee, UK.

[2] = molecular target: T1, GSK-3β; experiment: Michaelis Menten ATP competitive and substrate competitive assays; assay type: biochemical, rabbit; conditions: Lineweaver-Burk plots; for Mode of inhibition versus substrate: lines intersect at the Y-axis
Method: We next performed Michaelis Menten competitive assays to examine the ability of 4-3 or 4-4 to compete with ATP or with substrates. […] Subsequently, Michaelis Menten substrate competitive assays were performed and data were analyzed by Lineweaver–Burk plots (Figure 6B). […] The calculated ki values were 7.7 ± 3 and 7.0 ± 0.2 for 4-3 and 4-4 respectively. […] While most of our experiments concentrated on GSK-3β, we also tested the inhibition of GSK-3α by compounds 4-1 through 4-5. […] Inhibition of GSK-3β by 4-3 or 4-4 was not affected by the detergent (Figure 6E). As a final caveat, we evaluated the selectivity of our leading compound 4-4.
as §1

[3] = test system: GSK-3β-F93A mutant; experiment: In vitro kinase assay with GSK-3β-F93A mutant; assay type: biochemical
Text: To further confirm that compounds interact with the GSK-3β substrate binding site, we performed in vitro kinase assays with the GSK-3β-F93A mutant in which Phe 93 was replaced by alanine. […] This, in contrast, to SB216763, an established GSK-3 ATP competitive inhibitor [46] that inhibited both wild-type (WT) and the F93A mutant (Figure 3B).
as §1

[4] = test system: 30 protein kinases; experiment: Selectivity against a collection of protein kinases (International Center for Kinase Profiling, Dundee); assay type: biochemical; conditions: 10 μM
Method: An ELISA-based assay was developed in our laboratory to measure GSK-3 activity. In brief, biotin-labelled IRS-1 peptide substrate was bound to streptavidin-coated 96-well microplates. A GSK-3 assay solution (0.1 μg GSK-3β, 20 mM Tris (pH 7.3), 10 mM MgCl2, and 10 μM ATP) was added to each well, together with the candidate compound at indicated concentrations, and the plates were incubated for 15 min at 30 °C. After having been washed (PBS 0.05% tween), the plates were incubated with a specific anti-phospho IRS-1 antibody (Ser^332) (1:2000), followed by HRP-secondary antibody (1:8000). The signal was developed with TMB solution (abcam, Cambridge UK, Cat# ab210902), stopped with H2SO4, and monitored in a plate reader ([…]). Assays were conducted in duplicates in three independent experiments. In the ATP competitive, or, substrate competitive assays, the assays (60 μL) were performed in Eppendorf tubes (to use “unbound” substrate), and 10–20 μL were spotted on the streptavidin-coated plates. Km values were calculated from the non-linear curve fit, and Ki values were calculated by Kapp = Km (1 + [I]/Ki). Bacterially expressed His-tagged rabbit GSK-3β was purified as described, and purified human GSK-3α was purchased from abcam (Cat# ab42597). […]

[5] = test system: SH-SY5Y cells; experiment: Cytoplasmic β-catenin levels in SH-SY5Y cells (immunoblot); assay type: cell-based, human; conditions: 4 h
Method: To verify the potential biological activity of our SCI compounds, we tested their ability to inhibit cellular GSK-3. We focused on the SCI compound 4-4 that was the best inhibitor of the five molecules that were tested (4-1–4-5) β-catenin, which is a central Wnt signaling component, and a well-established GSK-3 target. β-catenin phosphorylation by GSK-3 triggers its rapid proteasomal degradation. We, therefore, studied potential alterations in β-catenin levels following treatment with 4-4. Human neuroblastoma SH-SY5Y cells were treated with increasing concentrations of 4-4, and the levels of β-catenin were determined in the cytoplasmic fraction (prepared after cell permeabilization and sup collection), this to avoid possible “masking” of membrane-associated β-catenin. […]
(§2) Equal amounts of proteins (30–50 μg) were subjected to SDS PHAGE gel electrophoresis, transferred to nitrocellulose membranes, and immunoblotted with selected antibodies followed by incubation with HRP-linked anti-rabbit, or, anti-mouse IgG (Cell signaling, MA, USA, and Jackson Immune Research, PA, USA, respectively). ECL developed membranes were imaged in UVITEC Alliance biomolecular imaging, and densitometry analysis of respected bands was analyzed with software provided by the vendor. […]

[6] = test system: Mouse hippocampal primary neurons; experiment: Tau (Ser 396) phosphorylation in hippocampal primary neurons (immunoblot); assay type: cell-based; conditions: 20 μM, 4 h
Method: (§3) Hippocampi were isolated from C57BL6/J mice (0–1 day old), and tissues were digested with trypsin type XI (Sigma, Rehovot, Israel, Cat # T1005), and DNase type IV (Sigma, cat #D5025). Cells were suspended in a plating medium including MEM supplemented with 10% FBS, transferrin (0.089 mg/m), GlutaMAX (0.75 U/mL) (Sigma, Cat # 35050-038), insulin (16 μM) (Roche, Basel, Switzerland, Cat # 45865100), and SM1 neuronal supplement (STEMCELL, Seattle, WA, USA, Cat # 05711), and plated on glass coverslips coated with Matrigel (Corning, NY, USA, Cat# 356234) in a 24-well plate. The day after plating and twice a week thereafter half of the medium was removed and was replaced with by fresh feeding medium (plating medium lacking insulin and containing Ara-C (3 μM)) (Sigma, Cat# C6645).
as §2, with “vendor. Representative protein bands were taken from the same gel, and each gel represents three independent experiments.” for “vendor.”

[7] = test system: Mouse hippocampal primary neurons; experiment: β-catenin immunostaining in hippocampal primary neurons; assay type: cell-based; conditions: 4-4 5 μM, CHIR99021 10 μM, 4 h
Method: as §3, with “The day after plating and twice a week thereafter half of the medium was removed and was replaced with by fresh feeding medium (plating medium lacking insulin and containing Ara-C (3 μM)) (Sigma, Cat# C6645).” left out
Primary neuron cells were treated with 4-4 (5 μM), CHIR99021 (10 μM) (Merck, MA, USA), or, vehicle (DMSO/1%Tween 80) for 4 hr. Cells were fixed with 4% PFA and immunostained with anti-βcatenin and anti-MAP2 (Sypnactic System, Goettingen, Germany, A neuronal marker) antibodies. βcatenin signal was evaluated by Image J software using co-localization finder plugin (https://imagej.nih.gov/ij/plugins/colocalization-finder.html) that calculated the ratio of βcatenin over MAP2 and DAPI in each cell. The average ratio that was determined for control vehicle-treated cells was set to 1 and respective folds of treated cells were calculated accordingly.

T1 sequence (A0A5F9DUX8 entry or part of it): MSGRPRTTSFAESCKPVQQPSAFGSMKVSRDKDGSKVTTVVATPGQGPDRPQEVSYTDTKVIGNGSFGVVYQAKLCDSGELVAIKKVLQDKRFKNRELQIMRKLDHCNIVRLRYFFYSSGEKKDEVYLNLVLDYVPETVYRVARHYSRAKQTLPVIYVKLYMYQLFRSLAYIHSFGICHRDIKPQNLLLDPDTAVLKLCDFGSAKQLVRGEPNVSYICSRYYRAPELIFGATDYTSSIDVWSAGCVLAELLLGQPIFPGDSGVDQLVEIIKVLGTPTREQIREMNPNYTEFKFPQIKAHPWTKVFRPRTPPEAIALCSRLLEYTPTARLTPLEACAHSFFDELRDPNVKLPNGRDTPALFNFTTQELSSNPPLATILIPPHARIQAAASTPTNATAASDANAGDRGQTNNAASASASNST

O=C(O)CCCNc1cc(N2CCN(C(=O)c3ccco3)CC2)c2noc3c2c1C(=O)c1ccccc1-3 [Compound 2-2]
IC50 [1]: 21 ± 4 µM
GSK-3β inhibition (in words) [1]: best GSK-3β inhibitors

O=C(O)CC1S/C(=N/N=C/c2cc(Br)ccc2OCc2ccc(Cl)cc2)NC1=O (stereo not shown) [Compound 1-7]
IC50 [1]: 180 ± 20 µM

Cc1sc2nc3c(SC(C)C(=O)O)cc(C(=O)c4ccccc4O)cn3c(=O)c2c1C (stereo not shown) [Compound 1-6]
IC50 [1]: 200 ± 30 µM

CCOC(=O)C1CCCN(c2cc(Nc3ccc(C(=O)O)cc3)c3c4c(onc24)-c2ccccc2C3=O)C1 (stereo not shown) [Compound 3-13]
IC50 [1]: > 21 µM

O=C(O)c1ccc(N2CCN(c3cc(NCCP(=O)(O)O)c4c5c(onc35)-c3ccccc3C4=O)CC2)cc1 [Compound 4-3]
Mode of inhibition versus ATP [2]: non-competitive inhibitors for ATP
Mode of inhibition versus substrate [2]: substrate competitive inhibitors
Effect of Triton ×100 on inhibition of GSK-3β [1]: not affected
IC50 [1]: 1 to 4 µM
Inhibition of F93A mutant ([3]; 20 μM each): did not inhibit

Cn1cc(C2=C(c3ccc(Cl)cc3Cl)C(=O)NC2=O)c2ccccc21 [SB216763, reference compound]
Inhibition of wild-type (WT) GSK-3β ([1]; 1 μM): inhibited
Inhibition of F93A mutant ([3]; 1 μM): inhibited

O=C1c2ccccc2-c2onc3c(N4CCN(c5ccc(O)cc5)CC4)cc(NCCP(=O)(O)O)c1c23 [Compound 4-4]
Mode of inhibition versus ATP [2]: non-competitive inhibitors for ATP
Mode of inhibition versus substrate [2]: substrate competitive inhibitors
Selectivity over 30 protein kinases [4]: showed specificity toward GSK-3α and GSK-3β
Cytoplasmic β-catenin at higher doses ([5]; 10 μM): reduction
Concentration sufficient to activate β-catenin in the cytoplasm [5]: 1 to 5 µM
Phosphorylation of tau (Ser 396) [6]: reduced
Effect of Triton ×100 on inhibition of GSK-3β [1]: not affected
IC50 [1]: 1 to 4 µM
Inhibition of F93A mutant ([3]; 20 μM each): did not inhibit
β-catenin levels in soma and dendrites of neurons [7]: significant increase

Cc1c[nH]c(-c2cnc(NCCNc3ccc(C#N)cn3)nc2-c2ccc(Cl)cc2Cl)n1 [CHIR9920, reference compound]
β-catenin levels in soma and dendrites of neurons [7]: significant increase

KEAPPSPPQS(p)PF [Compound L803F, reference compound]
Inhibition of F93A mutant ([3]; 20 μM each): barely inhibited

O=C(O)CCNc1cc(N2CCN(c3ccc(F)cc3)CC2)c2noc3c2c1C(=O)c1ccccc1-3 [Compound 3-8]
IC50 [1]: 8 ± 3 µM

O=C(O)CCCNc1cc(N2CCN(c3ccc(F)cc3)CC2)c2noc3c2c1C(=O)c1ccccc1-3 [Compound 2-1]
GSK-3β inhibition (in words) [1]: best GSK-3β inhibitors

O=C(O)CCNc1cc(N2CCN(C(=O)c3ccco3)CC2)c2noc3c2c1C(=O)c1ccccc1-3 [Compound 3-5]
IC50 [1]: > 21 µM

O=C(O)CNc1cc(N2CCC(c3ccccc3)CC2)c2noc3c2c1C(=O)c1ccccc1-3 [Compound 3-9]
IC50 [1]: > 21 µM
